Where “and” joins values, the source holds several entries; their conditions need not be identical. Equal entries are not always repeated. Where two headings read alike, the source gives them in different places.
Tests used:
[1] = Pharmacokinetics of compound 6 in mice: plasma, urine, bladder, kidneys by HPLC-MS/MS; assay type: in vivo, female CBA/J mice; conditions: for concentration at 52 h / concentration at 48 h: subcutaneous; for concentration at 52 h: 100 mg/kg s.c. once a day at 0, 24, 48 h; for concentration at 48 h: 100 mg/kg s.c. once a day, sample just prior to the 48-h injection
Protocol: We developed a high-performance liquid chromatography-tandem mass spectrometry (HPLC-MS/MS) assay to measure compound 6 with a lower limit of quantification of 1 ng/mL. Single-dose PK parameters of compound 6 were determined in female CBA/J mice (n = 15) given 100 mg/kg s.c. dissolved in the vehicle. Blood was obtained from groups of 3 mice 1, 2, 4, 8, and 24 h postinjection.
As effective antimicrobials must achieve concentrations that exceed their MICs, we next determined whether compound 6 achieved plasma, kidney, bladder, and urinary concentrations in excess of its peak activating concentration of 10 μM in the CpxR reporter assay. […] Blood and urine samples were obtained just prior to the 48-h injection and at 52 h, 4 h after the final dose; we were only able to recover 2 urine samples at those time points. At 52 h, the animals were sacrificed, and tissue levels of compound 6 were determined in the bladder and kidneys. The mean peak and trough levels of compound 6 were 18.6 ± 3.2 μM and 9.6 ± 1.9 μM in the plasma and 344 μM and 151.7 μM in the urine, respectively. The mean tissue levels of compound 6 in the bladder and kidneys were 203 ± 28 μM and 48 ± 4 μM, respectively. Thus, compound 6 achieved levels in the urine, bladder, and kidneys that were ∼5- to 34-fold higher than its peak activating concentration.
Compound 6 was quantified by the IU Simon Comprehensive Cancer Center Clinical Pharmacology Analytical Core from mouse plasma and mouse urine using temazepam (TMP) as the internal standard and HPLC-MS/MS (5500 QTRAP; AB Sciex, Framingham, MA). In brief, compound 6 and TMP were separated by a gradient mobile phase (acetonitrile, 5 mM ammonium acetate) with a Restek Ultra C8 50 by 4.6 mm 5-micron column. The mass spectrometer utilized an electrospray ionization probe run in positive mode. The multiple reaction monitoring (MRM) Q1/Q3 (m/z) transitions for compound 6 and TMP were 187.9/146.0 and 301.1/254.9, respectively. Plasma or urine samples (20 μL) were transferred to glass culture tubes, TMP (20 μL of 0.1 ng/μL) was added as the internal standard, and the extraction was performed by the addition of 2 mL of methyl tertiary butyl ether. The samples were then vortexed, centrifuged, and the organic layer was transferred to a clean glass culture tube and evaporated to dryness. The samples were then reconstituted with 50 μL of the gradient mobile phase, and a 10-μL aliquot was injected to the HPLC-MS/MS. The standard curves were prepared using naive mouse plasma or naive mouse urine as the matched matrix and was linear from 1 to 1,000 ng/mL.
Compound 6 was quantified from the bladder and kidneys using a slightly modified method from the plasma sample analysis. Briefly, the tissue was weighed and then transferred to a polypropylene tube. Phosphate-buffered saline (PBS) (pH 7.4) was added to the tissue to bring the total volume to 0.5 mL (assumption 1 g = 1 mL). The tissue was homogenized using a TissueRuptor with a single use disposable probe. An aliquot (0.4 mL) was transferred to a clean polypropylene tube and temazepam (20 μL of 0.1 ng/μL) was added as the internal standard. The extraction procedure and HPLC-MS/MS conditions were the same as for the plasma samples. The standard curve was prepared using phosphate-buffered saline and was linear from 0.04 to 40 ng/sample.

CpxR-P = CpxR-P accumulation in CFT073 cultured in human urine (Phos-Tag gel, Western blot, densitometry); assay type: cell-based, Escherichia coli; conditions: 150 μM, 5 h, 4 experiments
Protocol: To examine whether treatment with compound 26 fostered higher accumulation of CpxR-P in CFT073 than in untreated CFT073 or CFT073ΔcpxA::cat, we cultured CFT073 in human urine in the presence of 150 μM compound 26 dissolved in DMSO, and CFT073 and CFT073ΔcpxA::cat in the presence of DMSO alone (hereafter called the CFT073 and CFT073ΔcpxA::cat controls); we chose 150 μM, as this was the approximate trough concentration of compound 6 detected in murine urine after 3 days of treatment. Briefly, the bacteria were grown in LB medium overnight, pelleted, washed, and inoculated into human urine and allowed to grow for 5 h. […] We harvested bacterial cells, made cell lysates, and detected CpxR and CpxR-P by Western blotting with an anti-MBP-CpxR antiserum as described ([31]). […] To compare the samples, the CpxR and CpxR-P bands were quantified by densitometry using samples from 4 of the independent experiments. […]
E. coli CFT073 and CFT073ΔcpxA::cat were cultured overnight at 37°C in 5 mL of LB medium overnight with shaking. […] Densitometry values were determined using Photoshop 2021 (version 22.4.3), and the ratio of CpxR-P to CpxR was analyzed by one-way ANOVA adjusted for multiple comparisons using the Tukey procedure.

CFT073 = assay: Growth of CFT073 in human urine (OD600); assay type: cell-based, Escherichia coli; conditions: 150 μM, 5 h

| SMILES | concentration at 52 h ([1]; female, CBA/J, mouse, bladder, at 52 h, read-out: mean tissue level in bladder) | concentration at 52 h ([1]; female, CBA/J, mouse, kidneys, at 52 h, read-out: mean tissue level in kidneys) | concentration at 24 h ([1]; female, CBA/J, mouse, plasma, sc, single dose 100 mg/kg s.c., read-out: plasma concentration at 24 h, mean ± SD) | Tmax ([1]; female, CBA/J, mouse, plasma, sc, single dose 100 mg/kg s.c., read-out: time of peak plasma concentration) | concentration at 52 h ([1]; female, CBA/J, mouse, plasma, sample at 52 h, read-out: mean peak level in plasma) | concentration at 48 h ([1]; female, CBA/J, mouse, plasma, read-out: mean trough level in plasma) | concentration at 52 h ([1]; female, CBA/J, mouse, urine, sample at 52 h, 2 samples, read-out: mean peak level in urine) | concentration at 48 h ([1]; female, CBA/J, mouse, urine, 2 samples, read-out: mean trough level in urine) | peak plasma concentration, mean ± SD ([1]; single dose 100 mg/kg s.c., at 4 h, 100 mg/kg) | increase of the ratio of CpxR-P to CpxR vs CFT073 control (CpxR-P) | increase of the ratio of CpxR-P to CpxR vs CFT073ΔcpxA::cat control (CpxR-P) | effect on bacterial growth (CFT073) | OD600 of treated CFT073, mean ± SD (CFT073; 5 independent experiments) |
| --- | --- | --- | --- | --- | --- | --- | --- | --- | --- | --- | --- | --- | --- |
| NC1CCCc2c1[nH]c1ccc(F)cc21 (stereo not shown) [compound 6] | 203 ± 28 µM | 48 ± 4 µM | 2390 ng/mL and 11.7 µM | 4 h | 18.6 ± 3.2 µM | 9.6 ± 1.9 µM | 344 µM | 152 µM | 3,305 ± 696 ng/mL and 16.2 ± 3.4 μM | – | – | – | – |
| N[C@@H]1CCCc2c1[nH]c1cc(F)c(F)cc21 [compound 26] | – | – | – | – | – | – | – | – | – | 1.3 fold | 1.4 fold | does not inhibit bacterial growth | 0.52 ± 0.2 |

Reference: paper PMC9045377, “CpxA Phosphatase Inhibitor Activates CpxRA and Is a Potential Treatment for Uropathogenic Escherichia coli in a Murine Model of Infection” (Microbiology Spectrum, 2022)
